For series [1], the system named is non-small cell lung (A549). To be noted: cited from earlier work.
For series [2], the system named is mouse leukemia (P388). Conditions: cited from earlier work.
For series [3], the system named is colon (HT-29). Conditions: cited from earlier work.
Series [4] deals with human cervical epithelium HeLa tumor cells. Nature of the series: Antiproliferation assay (WST-1 cell viability). The class given is cell-based. Conditions: 24 h incubation, conjugates added at a peptide concentration of 1×10^−5 M. The method, then:
The degree of cytotoxic activity of single peptides (P1 and P2), single gold nanoparticle solutions (AuNP-20 and AuNP-40) and their respective conjugates was determined by cell viability testing using the WST-1 assay in human cervical epithelium HeLa tumor cells, following 24 h of incubation. Each assay was run in sextuplicate, and the whole experiment was run in triplicate.
HeLa cell line (ATTC no CCL-2) was maintained in Dulbecco Modified Eagle's Minimal Essential Medium (DMEM) low glucose medium (Biological Industries) containing 10% foetal calf serum (FCS), 2 mM glutamine, 50 U/mL penicillin, and […] streptomycin at 37° C. in a controlled 5% CO2 atmosphere.
For cell viability experiments, exponentially growing HeLa cells were detached from the culture flasks using a trypsin-0.25% ethylenediaminetetraacetic acid (EDTA) solution and the cell suspension was seeded at a concentration of 3.5×10^3 cells/cm^2 onto glass coverslips (Nalge Nunc International, Rochester, N.Y.). WST 1 assays were carried out 24 h later, when the confluence was approximately 70-80%. Non-adherent cells were washed away and attached cells were incubated at 37° C. in 5% CO2 in DMEM with a known concentration of gold nanoparticles.
For each assay, 3.5×10^3 cells/cm^2 were seeded onto a 96-well plate (Nalge Nunc) and cultured for 24 h. […]

The subject of series [5] is human tumor cell types such as breast, prostate, and melanoma. Conditions: xenografted murine models; cited from earlier work.

For the molecule `C/C=C1\NC(=O)[C@H](Cc2ccccc2)NC(=O)[C@@H](C(C)C)NC(=O)[C@@H]([C@@H](C)CC)NC(=O)[C@H](NC(=O)[C@H](NC(=O)[C@H](CCCN)NC(=O)[C@H]2CCCN2C(=O)[C@H](NC(=O)[C@@H](NC(=O)[C@@H](NC(=O)[C@H](NC(=O)CCCC(C)C)C(C)C)[C@@H](C)O)C(C)C)C(C)C)[C@@H](C)CC)[C@@H](C)OC(=O)[C@H](C(C)C)NC1=O` [Kahalalide F], the in vitro activity result in series [1], in series [2] and in series [3] was “micromolar activity” throughout.
In the case of `C/C=C1\NC(=O)[C@H](Cc2ccccc2)NC(=O)[C@@H](C(C)C)NC(=O)[C@@H]([C@@H](C)CC)NC(=O)[C@H](NC(=O)[C@H](NC(=O)[C@H](CCCN)NC(=O)[C@H]2CCCN2C(=O)[C@H](NC(=O)[C@@H](NC(=O)[C@@H](NC(=O)[C@@H](CS)NC(=O)CCCC(C)C)[C@@H](C)O)C(C)C)C(C)C)[C@@H](C)CC)[C@@H](C)OC(=O)[C@H](C(C)C)NC1=O` [P1], the “inhibition (cytotoxicity against HeLa cells)” value in series [4] was 50%.
With `C/C=C1\NC(=O)[C@H](Cc2ccccc2)NC(=O)[C@@H](C(C)C)NC(=O)[C@@H]([C@@H](C)CC)NC(=O)[C@H](NC(=O)[C@H](NC(=O)[C@H](CCCN)NC(=O)[C@H]2CCCN2C(=O)[C@H](NC(=O)[C@@H](NC(=O)[C@@H](NC(=O)[C@H](CS)NC(=O)CCCC(C)C)[C@@H](C)O)C(C)C)C(C)C)[C@@H](C)CC)[C@@H](C)OC(=O)[C@H](C(C)C)NC1=O` [P2], the “inhibition (cytotoxicity against HeLa cells)” value in series [4] amounted to 10%.
On to `C/C=C1\NC(=O)[C@H](Cc2ccccc2)NC(=O)[C@@H](C(C)C)NC(=O)[C@@H]([C@@H](C)CC)NC(=O)[C@H](NC(=O)[C@H](NC(=O)[C@H](CCCN)NC(=O)[C@H]2CCCN2C(=O)[C@H](NC(=O)[C@@H](NC(=O)[C@@H](NC(=O)[C@H](NC(=O)CC[C@@H](C)CC)C(C)C)[C@@H](C)O)C(C)C)C(C)C)[C@@H](C)CC)[C@@H](C)OC(=O)[C@H](C(C)C)NC1=O` [PMO2734], for which, in series [5], the in vivo activity result is “significant in vivo activity”.
